Among the data in patent EP0385850A2, “Benzimidazole and azabenzimidazole derivatives, process for their preparation, synthesis intermediates, pharmaceutical compositions containing them, useful for the treatment of cardiovascular diseases and duodenal ulcers” (LABORATOIRES UPSA, priority 1989, dated 1990) are ED50 values, retold here.

The subject of assay [1] is rats mâles de souche OFA. Put plainly: anti-ulcer activity against a necrotising agent (e.g. absolute ethanol), oral, rat. In kind it is in vivo. To be noted: v.o., 30 min before necrotising agent, stomachs removed 1 h after, dose reducing lesions by 50 %, determined graphically, read-out: activité anti-ulcère vis à vis d'un agent nécrosant DA 50 Mg/Kg v.o. Here is the method: (§1) Des lots de 10 à 30 rats mâles de souche OFA (Iffa Credo), pesant 160-180 g, sont mis à la diète hydrique 24 h avant l'administration orale du produit étudié. Trente minutes plus tard, un agent ulcérigène médicamenteux ou un agent nécrosant (exemple : éthanol absolu) est administré par voie orale à des doses qui entraînent chez les animaux témoins une ulcération gastrique maximale. Les estomacs sont prélevés, selon le test, respectivement 6 et 1 h après le dernier traitement. Les lésions gastriques sont alors évaluées macroscopiquement (cotation et mesure de l'ampleur des ulcères).
(§2) Ils sont exprimés sous forme de dose active 50 déterminée graphiquement. Cette dose exprime la dose nécessaire pour réduire de 50 % les lésions ulcéreuses observées chez les animaux témoins.

The test system of assay [2] is rats mâles de souche OFA. The assay is described as follows: anti-ulcer activity against a non-steroidal anti-inflammatory (ulcerogenic drug), oral, rat. In kind it is in vivo. To be noted: v.o., 30 min before ulcerogenic drug, stomachs removed 6 h after, dose reducing lesions by 50 %, determined graphically, read-out: activité anti-ulcère vis à vis d'un anti-inflammatoire non stéroïdien DA 50 Mg/Kg v.o. The method, then:
as §1, §2

Each structure is given as a SMILES string.

Take `Cn1c(=S)[nH]c2ccc(-n3ccnc3)cc21` [Exemple 124, (imidazolyl-1)-5 méthyl-3 benzimidazole thione-2]: the ED50 in the assay with rats mâles de souche OFA [1] was determined as 4.5 mg/kg.
On to `CSc1nc2ccc(-n3ccnc3)cc2[nH]1` [Exemple 128, (Imidazolyl-1)-5 (méthylthio)-2 benzimidazole], for which the values for the ED50 in the assay on rats mâles de souche OFA [2] and with rats mâles de souche OFA [1] were 18.3 mg/kg and 4.5 mg/kg, respectively.
Take `C=CCSc1nc2ccc(-n3ccnc3)cc2[nH]1` [Exemple 129, (imidazolyl-1)-5 (allylthio)-2 benzimidazole]: the ED50 in the assay with rats mâles de souche OFA [1] came out at 0.33 mg/kg.
`C#CCSc1nc2ccc(-n3ccnc3)cc2[nH]1` [Exemple 130, (Imidazolyl-1)-5 (propargylthio)-2 benzimidazole]: the results for the ED50 in the assay with rats mâles de souche OFA [2] and in the assay on rats mâles de souche OFA [1] were 9.24 mg/kg and 0.48 mg/kg, respectively.
